Assay results reported in patent US3945994A, “Novel acid compounds” (Gist-Brocades N.V., priority 1973, dated 1976).
In brackets after ≈: the same amount, converted by molar mass.

Columns and labels:
Type in all cases: cell-based
Salmonella dublin P 43 = details: Salmonella enterica, P43; agar serial dilution, 24 hours at 37°C
[1] = tested on: Pseudomonas aeruginosa H 10; details: H10, agar serial dilution, 24 hours at 37°C
[2] = tested on: Pasteurella multocida A 723; details: A723, agar serial dilution, 24 hours at 37°C
Proteus rettgeri A 821 = details: Providencia rettgeri, A821; agar serial dilution, 24 hours at 37°C
Proteus morganii 2241 = details: Morganella morganii, agar serial dilution, 24 hours at 37°C
Escherichia coli U 20 = details: U20, agar serial dilution, 24 hours at 37°C
[3] = tested on: Bacillus subtilis ATCC 6633; details: ATCC6633, agar serial dilution, 24 hours at 37°C
Proteus mirabilis A 1200 = details: A1200, agar serial dilution, 24 hours at 37°C
[4] = tested on: Pseudomonas aeruginosa Wyeth A 1058; details: WYETHA1058, agar serial dilution, 24 hours at 37°C
[5] = tested on: Salmonella typhimurium R 127; details: Salmonella enterica, agar serial dilution, 24 hours at 37°C
[6] = tested on: Streptococcus haemolyticus A 266; details: A266, agar serial dilution, 24 hours at 37°C
[7] = tested on: Streptococcus faecalis L 80; details: Enterococcus faecalis, L80; agar serial dilution, 24 hours at 37°C
Proteus mirabilis H 3 = details: H3, agar serial dilution, 24 hours at 37°C
[8] = tested on: Staphylococcus aureus A 2001; details: A2001, agar serial dilution, 24 hours at 37°C
[9] = tested on: Pseudomonas aeruginosa 2396; details: agar serial dilution, 24 hours at 37°C
[10] = tested on: Klebsiella pneumoniae A 809; details: A809, agar serial dilution, 24 hours at 37°C
[11] = tested on: Diplococcus pneumoniae L 54; details: Streptococcus pneumoniae, L54; agar serial dilution, 24 hours at 37°C
[12] = tested on: Staphylococcus aureus A 321; details: A321, agar serial dilution, 24 hours at 37°C
[13] = tested on: Staphylococcus aureus A 355'; details: agar serial dilution, 24 hours at 37°C
[14] = tested on: Staphylococcus aureus A 2000; details: A2000, agar serial dilution, 24 hours at 37°C

Row | SMILES | MIC (Salmonella dublin P 43) | MIC [1] | MIC [2] | MIC (Proteus rettgeri A 821) | MIC (Proteus morganii 2241) | MIC (Escherichia coli U 20) | MIC [3] | MIC (Proteus mirabilis A 1200) | MIC [4] | MIC [5] | MIC [6] | MIC [7] | MIC (Proteus mirabilis H 3) | MIC [8] | MIC [9] | MIC [10] | MIC [11] | MIC [12] | MIC [13] | MIC [14]
1 | CC(C)N(C(C)C)S(=O)(=O)NC(=O)N[C@@H](C(=O)N[C@@H]1C(=O)N2[C@@H]1SC(C)(C)[C@@H]2C(=O)O)c1ccccc1 [VIII, D-6-[α-{3-(diisopropylaminosulfonyl)-ureido}-benzylcarbonamido]-penicillanic acid] | 25 µg/mL (≈ 45 µM) | 100 µg/mL (≈ 180 µM) | 6 µg/mL (≈ 10.8 µM) | 25 µg/mL (≈ 45 µM) | 100 µg/mL (≈ 180 µM) | 25 µg/mL (≈ 45 µM) | 1 µg/mL (≈ 1.8 µM) | 50 µg/mL (≈ 90 µM) | 50 µg/mL (≈ 90 µM) | 100 µg/mL (≈ 180 µM) | 0.25 µg/mL (≈ 0.45 µM) | 6 µg/mL (≈ 10.8 µM) | 100 µg/mL (≈ 180 µM) | 6 µg/mL (≈ 10.8 µM) | 50 µg/mL (≈ 90 µM) | 25 µg/mL (≈ 45 µM) | 1 µg/mL (≈ 1.8 µM) | 1 µg/mL (≈ 1.8 µM) |  | 
2 | CCOC(=O)CNS(=O)(=O)NC(=O)N[C@@H](C(=O)N[C@@H]1C(=O)N2[C@@H]1SC(C)(C)[C@@H]2C(=O)O)c1ccccc1 [X, D-6-[α-{3-(ethoxycarbonylmethylaminosulfonyl)-ureido}-benzylcarbonamido]-penicillanic acid] | 25 µg/mL (≈ 44.8 µM) | > 100 µg/mL | 0.25 µg/mL (≈ 0.448 µM) | < 0.75 µg/mL | 50 µg/mL (≈ 89.7 µM) | 25 µg/mL (≈ 44.8 µM) | 1 µg/mL (≈ 1.79 µM) | 3 µg/mL (≈ 5.38 µM) | 25 µg/mL (≈ 44.8 µM) | 50 µg/mL (≈ 89.7 µM) | 0.25 µg/mL (≈ 0.448 µM) | 25 µg/mL (≈ 44.8 µM) | 1.5 µg/mL (≈ 2.69 µM) | 12.5 µg/mL (≈ 22.4 µM) | 100 µg/mL (≈ 179 µM) | 100 µg/mL (≈ 179 µM) | 1.5 µg/mL (≈ 2.69 µM) | 3 µg/mL (≈ 5.38 µM) | 25 µg/mL (≈ 44.8 µM) | 12.5 µg/mL (≈ 22.4 µM)
3 | CCOS(=O)(=O)NC(=O)N[C@@H](C(=O)N[C@@H]1C(=O)N2[C@@H]1SC(C)(C)[C@@H]2C(=O)O)c1ccccc1 [VI, D-6-[α-{3-(ethoxysulfonyl)-ureido}-benzylcarbonamido]-penicillanic acid] | 6 µg/mL (≈ 12 µM) | 100 µg/mL (≈ 200 µM) | > 100 µg/mL | 1.5 µg/mL (≈ 3 µM) | > 100 µg/mL | 12.5 µg/mL (≈ 25 µM) | 0.25 µg/mL (≈ 0.499 µM) | 1.5 µg/mL (≈ 3 µM) | 25 µg/mL (≈ 49.9 µM) | 25 µg/mL (≈ 49.9 µM) | 0.25 µg/mL (≈ 0.499 µM) | 25 µg/mL (≈ 49.9 µM) | 12.5 µg/mL (≈ 25 µM) | 6 µg/mL (≈ 12 µM) | 25 µg/mL (≈ 49.9 µM) | > 100 µg/mL | 6 µg/mL (≈ 12 µM) | 1.5 µg/mL (≈ 3 µM) | 50 µg/mL (≈ 99.9 µM) | 12.5 µg/mL (≈ 25 µM)
4 | CC1(C)S[C@@H]2[C@H](NC(=O)[C@H](NC(=O)NS(N)(=O)=O)c3ccccc3)C(=O)N2[C@H]1C(=O)O [XVI, D-6-[α-{3-(aminosulfonyl)-ureido}-benzylcarbonamido]-penicillanic acid] | 100 µg/mL (≈ 212 µM) | > 100 µg/mL | 0.5 µg/mL (≈ 1.06 µM) | 25 µg/mL (≈ 53 µM) | > 100 µg/mL | 100 µg/mL (≈ 212 µM) | 0.5 µg/mL (≈ 1.06 µM) | 25 µg/mL (≈ 53 µM) | 50 µg/mL (≈ 106 µM) | > 100 µg/mL | 0.12 µg/mL (≈ 0.254 µM) | 6 µg/mL (≈ 12.7 µM) | 50 µg/mL (≈ 106 µM) | 6 µg/mL (≈ 12.7 µM) | 50 µg/mL (≈ 106 µM) | > 100 µg/mL |  | 3 µg/mL (≈ 6.36 µM) | 25 µg/mL (≈ 53 µM) | 25 µg/mL (≈ 53 µM)
5 | Cc1cc(NS(=O)(=O)NC(=O)N[C@@H](C(=O)N[C@@H]2C(=O)N3[C@@H]2SC(C)(C)[C@@H]3C(=O)O)c2ccccc2)no1 [XII, D-6-[α-{3-(5-methylisoxazol-3-yl-aminosulfonyl)-ureido}-benzylcarbonamido]-penicillanic acid] | 12.5 µg/mL (≈ 22.6 µM) | 100 µg/mL (≈ 181 µM) | 1.5 µg/mL (≈ 2.71 µM) | 6 µg/mL (≈ 10.9 µM) | 50 µg/mL (≈ 90.5 µM) | 25 µg/mL (≈ 45.2 µM) | 1.5 µg/mL (≈ 2.71 µM) | 1.5 µg/mL (≈ 2.71 µM) | 25 µg/mL (≈ 45.2 µM) | 25 µg/mL (≈ 45.2 µM) | 1.5 µg/mL (≈ 2.71 µM) | 25 µg/mL (≈ 45.2 µM) | 6 µg/mL (≈ 10.9 µM) | 12.5 µg/mL (≈ 22.6 µM) | 25 µg/mL (≈ 45.2 µM) | 50 µg/mL (≈ 90.5 µM) |  | 3 µg/mL (≈ 5.43 µM) | 25 µg/mL (≈ 45.2 µM) | 25 µg/mL (≈ 45.2 µM)
